Measurements: patent publication US20260069699A1, “Hybrid Curcumin Conjugates And Methods Of Use Thereof” (AUGUSTA UNIVERSITY RESEARCH INSTITUTE, INC., priority 2020, published 2026)

Tests used:
T47D cells = assay: MTT cell proliferation assay, T47D cells; assay type: cell-based, human; conditions: 72 h
Experimental: (§1) We tested the antitumor potential of All the synthesized six DCA-curcumin hybrid conjugates (CMC 1-CMC 6) with two different human breast cancer cell lines [T47D, an ER-positive BC cell line and MDA-MB231 (MB231), a triple-receptor negative BC (TNBC) cell line] using the colorimetric MTT (3-(4,5-dimethylthiazol-2yl)-2,5-diphenyltetrazolium bromide) cell proliferation assay kit.
(§2) […] and MB231 cells (5×10^3) were seed in 96-well plates and left them in the cell culture incubator at 37° C. with 5% CO2 in DMEM and RPMI medium (100 μl), respectively. After 24 h, the medium was replaced with the CMC compounds at different concentrations (0, 1, 5, and 10 μM) for 72 h. After 72 h, 10 μl Reliablue reagent was added to each well and incubated for 2 h for the formation of purple formazan and then added 100 μl of detergent to dissociate the formazan precipitate and measured at 570 nm. Values are shown as mean±SEM of three experiments with 6 wells in each, a total of 18 repeats.

MDA-MB231 (MB231) cells = assay: MTT cell proliferation assay, MB231 cells; assay type: cell-based, human
Experimental: as §1, §2

FVB/N mice = assay: Adverse effects and toxicity in normal mice; assay type: in vivo, mouse; conditions: oral gavage 50 and 100 mg/kg body, 7 days
Experimental: Adverse effects and toxicity to the normal cells are the most challenging part of the anticancer drug development process. […] The body weight and any side effects of contraindication monitored during the period.
Control mice received PBS. After one weak of drug administration, mouse weight was measured every day for 7 days. We used 3 mice in each group. (A) Body weight changes in control mice (B and C) Body weight changes in CMC1 (50 and 100 mg/kg body). (D and E) Body weight changes in CMC1 (50 and 100 mg/kg body) Computational Studies: […]

MMTV-PyMT-Tg mice = assay: Tumor growth in genetically engineered mouse (GEM) model of breast cancer; assay type: in vivo; conditions: 10 mg/kg body, three times a week by oral gavage for 7 weeks
Experimental: The antitumor potential of one of the most potential CMC compound, CMC2, in genetically engineered mouse (GEM) model of breast cancer, MMTV-PyMT-Tg mice was tested. The MMTV-PyMT-Tg mouse was mainly chosen because the tumor formation and progression in this mouse is characterized by four different stages (hyperplasia, adenoma/mammary intra-epithelial neoplasia, early and late carcinoma) and also mimics human breast cancer, the tumor develops first as ER-positive (ER^+) but ultimately becomes ER-negative BC (ER^− BC).
It was randomly assigned 6-week-old MMTV-PyMT-Tg mice into two groups (3 mice in each); one control and one CMC2 treated (10 mg/kg body, three times a week by oral gavage for 7 weeks). Tumor volume was measured twice a week and the volume was calculated using the formula V=L×W^2/2, where L represents the largest tumor diameter and W represents the smallest tumor diameter. After the experimental period, tumor tissues were collected, a picture was taken, and tumor weight was measured. Tissue sections were prepared from the tumor tissue and stained for Hematoxylin and Eosin (H & E) section and also stained for the Ki67 for cell proliferation. Tissue sections and H & E sections were prepared from the Augusta University Histology core facility.
Six-week-old MMTV-PyMT-Tg mice were treated with CMC2 (10 mg/kg body for 3× a week for 7 weeks. Control mice received PBS. Tumor volume was measured twice a week and calculated (A). After the experimental period, tumor size (B) and tumor weight (C) were also analyzed. Tissue sections were prepared and stained with H & E and Ki67 (D). Values are shown as mean±SD of three mice in each.

Structure (SMILES)	EC50 (T47D cells) [nM]	EC50 (MDA-MB231 (MB231) cells; 72 h) [nM]	EC50 (MDA-MB231 (MB231) cells; Homo sapiens, MDA-MB-231, 72 h) [nM]	contraindication / side effects (FVB/N mice)	mouse growth (body weight) (FVB/N mice)	tumor growth (tumor volume) (MMTV-PyMT-Tg mice)	tumor size (MMTV-PyMT-Tg mice)	tumor weight (MMTV-PyMT-Tg mice)
COc1cc(/C=C/C(=O)/C=C(O)/C=C/c2ccc(OC(=O)CNC(=O)C(Cl)Cl)c(OC)c2)ccc1OC(=O)CNC(=O)C(Cl)Cl [CMC 2]	1420	778		no contraindication	normal	significantly reduced	significantly reduced	significantly reduced
COc1cc(/C=C/C(=O)/C=C(O)/C=C/c2ccc(OC(=O)C(Cl)Cl)c(OC)c2)ccc1OC(=O)C(Cl)Cl [CMC 1]			424	no contraindication	normal			
COc1cc(/C=C/C(=O)/C=C(O)/C=C/c2ccc(OC(=O)[C@H](C)NC(=O)C(Cl)Cl)c(OC)c2)ccc1OC(=O)[C@H](C)NC(=O)C(Cl)Cl [CMC 3]	1600	518						

Now from value to compound, other results behind:

EC50 (T47D cells) [nM]	EC50 (MDA-MB231 (MB231) cells; 72 h) [nM]	EC50 (MDA-MB231 (MB231) cells; Homo sapiens, MDA-MB-231, 72 h) [nM]	Structure (SMILES)	contraindication / side effects (FVB/N mice)	mouse growth (body weight) (FVB/N mice)	tumor growth (tumor volume) (MMTV-PyMT-Tg mice)	tumor size (MMTV-PyMT-Tg mice)	tumor weight (MMTV-PyMT-Tg mice)
1260	1130		COc1cc(/C=C/C(=O)/C=C(O)/C=C/c2ccc(OC(=O)CCNC(=O)C(Cl)Cl)c(OC)c2)ccc1OC(=O)CCNC(=O)C(Cl)Cl [CMC 4]					
1370	942		COc1cc(/C=C/C(=O)/C=C(O)/C=C/c2ccc(OC(=O)CCCNC(=O)C(Cl)Cl)c(OC)c2)ccc1OC(=O)CCCNC(=O)C(Cl)Cl [CMC 6]					
1240	838		COc1cc(/C=C/C(=O)/C=C(O)/C=C/c2ccc(OC(=O)[C@H](Cc3ccccc3)NC(=O)C(Cl)Cl)c(OC)c2)ccc1OC(=O)[C@H](Cc1ccccc1)NC(=O)C(Cl)Cl [CMC 5]					
